{
  "source": "the supplement of paper PMC10307832",
  "data": [
    {"compound": "C[C@@H](Oc1cc(-c2cnn(C3CCNCC3)c2)cnc1N)c1c(Cl)ccc(F)c1Cl [Crizotinib] + C[C@]1(O)C[C@@H](c2nc(-c3ccc4ccc(-c5ccccc5)nc4c3)c3c(N)nccn32)C1 [Linsitinib] (partner 1 µM)", "assay": "relative viability (nuclei count vs DMSO), 5 days (fraction); higher = more cells survive", "conditions": "first compound 1 µM", "how_it_was_run": "(§1)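 Relative viability was taken as the ratio of nuclei in treated wells to nuclei in vehicle wells. Lung cancer cell lines in 1536-well plates received compounds by pin tool one day after seeding, either one drug alone or a fixed anchor-drug dose plus five library-drug doses (not always all listed) in √10 steps. Nuclei were counted on 4× images after 5 days of treatment, and values are medians of duplicate plates.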", "values": [
      {"cell line": "HCC-78", "relative viability": 0.372},
      {"cell line": "HCC-366", "relative viability": 0.608},
      {"cell line": "HCC-827", "relative viability": 0.958},
      {"cell line": "HOP-62", "relative viability": 0.816},
      {"cell line": "IA-LM", "relative viability": 0.609},
      {"cell line": "LC-2-ad", "relative viability": 0.852},
      {"cell line": "LCLC-97TM1", "relative viability": 0.168},
      {"cell line": "LCLC-103H", "relative viability": 1.3},
      {"cell line": "LK-2", "relative viability": 0.709},
      {"cell line": "LOU-NH91", "relative viability": 0.939},
      {"cell line": "LU99A", "relative viability": 0.579},
      {"cell line": "LXF-289", "relative viability": 0.937},
      {"cell line": "NCI-H727", "relative viability": 0.409},
      {"cell line": "NCI-H1299", "relative viability": 0.984},
      {"cell line": "NCI-H1563", "relative viability": 1.27},
      {"cell line": "NCI-H1703", "relative viability": 0.654},
      {"cell line": "NCI-H2228", "relative viability": 0.328}
    ]},
    {"compound": "CC(C)C[C@H](NC(=O)[C@H](CCc1ccccc1)NC(=O)CN1CCOCC1)C(=O)N[C@@H](Cc1ccccc1)C(=O)N[C@@H](CC(C)C)C(=O)[C@@]1(C)CO1 [Carfilzomib] + Nc1nc2[nH]cc(CCc3ccc(C(=O)N[C@@H](CCC(=O)O)C(=O)O)cc3)c2c(=O)[nH]1 [Pemetrexed] (partner 0.2 µM)", "assay": "relative viability (nuclei count vs DMSO), 5 days (fraction); higher = more cells survive", "conditions": "first compound 0.001 µM", "how_it_was_run": "as §1", "values": [
      {"cell line": "201T", "relative viability": 0.33},
      {"cell line": "A-427", "relative viability": 0.951},
      {"cell line": "BEN", "relative viability": 0.743},
      {"cell line": "CAL-12T", "relative viability": 1.19},
      {"cell line": "COR-L23", "relative viability": 0.2},
      {"cell line": "COR-L 105", "relative viability": 1.24},
      {"cell line": "ChaGo-K-1", "relative viability": 0.27},
      {"cell line": "EKVX", "relative viability": 0.393},
      {"cell line": "EMC-BAC-2", "relative viability": 0.496},
      {"cell line": "EPLC-272H", "relative viability": 0.367},
      {"cell line": "H3255", "relative viability": 0.544},
      {"cell line": "HARA", "relative viability": 0.241},
      {"cell line": "HCC-15", "relative viability": 0.242},
      {"cell line": "HCC-44", "relative viability": 0.665},
      {"cell line": "HCC-78", "relative viability": 0.876},
      {"cell line": "HCC-366", "relative viability": 0.158},
      {"cell line": "HCC-827", "relative viability": 0.252},
      {"cell line": "HOP-62", "relative viability": 0.404},
      {"cell line": "LC-2-ad", "relative viability": 0.275},
      {"cell line": "LCLC-97TM1", "relative viability": 0.164},
      {"cell line": "LCLC-103H", "relative viability": 0.483},
      {"cell line": "LK-2", "relative viability": 0.304},
      {"cell line": "LOU-NH91", "relative viability": 0.368},
      {"cell line": "LU99A", "relative viability": 0.191},
      {"cell line": "LXF-289", "relative viability": 0.947},
      {"cell line": "NCI-H522", "relative viability": 1.19},
      {"cell line": "NCI-H1563", "relative viability": 0.685},
      {"cell line": "NCI-H1648", "relative viability": 0.717},
      {"cell line": "NCI-H1650", "relative viability": 0.343},
      {"cell line": "NCI-H2170", "relative viability": 0.262},
      {"cell line": "NCI-H2228", "relative viability": 0.316},
      {"cell line": "NCI-H2342", "relative viability": 0.732}
    ]},
    {"compound": "CC(C)C[C@H](NC(=O)[C@H](CCc1ccccc1)NC(=O)CN1CCOCC1)C(=O)N[C@@H](Cc1ccccc1)C(=O)N[C@@H](CC(C)C)C(=O)[C@@]1(C)CO1 [Carfilzomib] + Nc1nc2[nH]cc(CCc3ccc(C(=O)N[C@@H](CCC(=O)O)C(=O)O)cc3)c2c(=O)[nH]1 [Pemetrexed] (partner 0.2 µM)", "assay": "relative viability (nuclei count vs DMSO), 5 days (fraction); higher = more cells survive", "conditions": "first compound 0.003162 µM", "how_it_was_run": "as §1", "values": [
      {"cell line": "201T", "relative viability": 0.33},
      {"cell line": "A-427", "relative viability": 1.02},
      {"cell line": "BEN", "relative viability": 0.778},
      {"cell line": "CAL-12T", "relative viability": 1.37},
      {"cell line": "COR-L23", "relative viability": 0.187},
      {"cell line": "COR-L 105", "relative viability": 1.09},
      {"cell line": "ChaGo-K-1", "relative viability": 0.258},
      {"cell line": "EKVX", "relative viability": 0.447},
      {"cell line": "EMC-BAC-2", "relative viability": 0.492},
      {"cell line": "EPLC-272H", "relative viability": 0.263},
      {"cell line": "H3255", "relative viability": 0.601},
      {"cell line": "HARA", "relative viability": 0.23},
      {"cell line": "HCC-15", "relative viability": 0.218},
      {"cell line": "HCC-44", "relative viability": 0.605},
      {"cell line": "HCC-78", "relative viability": 0.868},
      {"cell line": "HCC-366", "relative viability": 0.149},
      {"cell line": "HCC-827", "relative viability": 0.267},
      {"cell line": "HOP-62", "relative viability": 0.304},
      {"cell line": "LC-2-ad", "relative viability": 0.302},
      {"cell line": "LCLC-97TM1", "relative viability": 0.176},
      {"cell line": "LCLC-103H", "relative viability": 0.459},
      {"cell line": "LK-2", "relative viability": 0.295},
      {"cell line": "LOU-NH91", "relative viability": 0.451},
      {"cell line": "LU99A", "relative viability": 0.163},
      {"cell line": "LXF-289", "relative viability": 0.933},
      {"cell line": "NCI-H522", "relative viability": 0.906},
      {"cell line": "NCI-H1563", "relative viability": 0.773},
      {"cell line": "NCI-H1648", "relative viability": 0.671}
    ]}
  ]
}
